The values that follow come from patent publication US8748177B2, “Compositions for proliferation of cells and related methods” (The Hospital for Sick Children, priority 2008, dated 2014).

“Also recorded” adds a separate entry of the source. Counter-ions that a name gives are not always drawn.

Test [1] deals with human SKPs. As to the kind of experiment: Dose-response curves for proliferation of human SKPs in presence of EGF and FGF2. The class given is cell-based. The settings on record: for proliferation of human SKPs: 100 nM, compared to cells grown in the absence of the agent. The procedure: The proliferative effects of MG 624 on SKPs and neuroblastoma tumor initiating cells have also been studied in detail. Dose response curves for proliferation of human SKPs and neuroblastoma tumor initiating cells in response to MG 624 were generated in the presence of EGF and FGF2. At 200 nM MG 624, SKP cell proliferation is enhanced (FIG. 5).
To characterize enhancement of proliferation brought about by the agents identified above, dose-response curves for MG624, GSK3β, pramoxine, kaempferol, and alprostadil in presence of EGF and FGF2 were generated (FIGS. 6A-6E).

The subject of the next test is C57BL/6 mice. The experiment in a line: Topical application to depilated dorsal skin: hair length, dermal thickness, anagen follicles, follicle density. It counts as in vivo, mouse. To be noted: for anagen hair cycle (anagen hair follicles by morphology) / follicle density (number of follicles per mm): topical once daily for 3 weeks; for hair length distribution histogram relative to control group: day 23, topical once daily. As to the method:
We tested compounds to determine whether their topical application could induce anagen hair cycle and follicle density. Briefly, seven-week old C57BL/6 mice were used. […] Mice were induced to enter anagen phase by being depilated in the dorsal region. Compounds ([…]) were topically applied onto the dorsal skin once daily for 3 weeks. Three mice were used for each compound group. Approximately 30 hairs from each mouse were plucked at specific days (day 16, day 19, and day 23) and the hair length was measured. Additionally, skin samples for cryosectioning were obtained from the treated dorsal region of each mouse.
All compounds were resuspended in vehicle solution (1.2 propanediol:EtOH:H20 (40:20:40)). Compound concentrations were as follows: alprostadil 40 μg/mL; kaempferol 28.6 μg/mL; pramoxine 329.8 μg/mL; MG 624 45.13 μg/mL. Also tested was Gold Bond topical anesthetic cream. Latanoprost (150 μg/mL) was used as a positive control and AKT inhibitor A443654 (100 μM) was used as a negative control.
FIG. 19 is a series of photomicrographs and graphs showing that topical application of the indicated compounds induces dermal thickness. Dorsal skin of animals topically treated with compounds described above, then isolated, cryosectioned and stained with hematoxylin and eosin. Dermal thickness was manually measured randomly through the slices. A mean of three measurements through the slice were performed and about 20-30 slices were analyzed for each mouse within each compound group.
FIG. 20 is a series of photomicrographs and graphs showing that alprostadil, kaempferol, pramoxine, or MG 624 induces anagen hair cycle and follicle density. The density is expressed as number of follicles per mm whereas the anagen hair follicles are determined by morphology.

Another test has as its system Sox2-EGFP mice. As to the kind of experiment: Single agent topical application, hair length in shaved Sox2-EGFP mice. It counts as in vivo, mouse. The settings on record: for hair length distribution histogram relative to control group: day 23, classes of 200 μm; for hair length: topical daily, days 16, 19 and 23, compared to control mice. The procedure:
Sox2-EGFP mice, 7-8 weeks old, were shaved on the dorsal back to synchronize the hair cycle, and kaempferol (Kae) or alprostadil (Alp) was topically applied daily. Control mice were treated with vehicle only. At days 16, 19, and 23, about 30-40 hairs were plucked from each mouse, and their length was measured. Three or four mice were used in each group. […] Hair length promoted by the compounds on day 23 is shown in distribution histograms relative to the control group. Hair length was binned in classes of 200 μm, and each class was expressed as a percentage of total hair population.

Test [2] has as its system human SKPs. As to the kind of experiment: In vitro sphere assay, human SKPs from foreskin. To be noted: treated for seven days, Hoechst stain, compared to vehicle control. The class given is cell-based. As to the method:
FIG. 7 is a schematic illustration of the in vitro sphere assay. SKPs were isolated from mouse back, whisker and human foreskin and allowed to grow in spheres. After 2-3 passages, spheres were dissociated and 3000 cells were plated in each well of a 96-well plate. Cells were then treated in triplicate with different concentrations of drugs or only with vehicle DMSO. Drugs were applied again on day 3 and the number of spheres was analyzed on day 7.
SKPs were isolated from mouse back, whisker, and human foreskin and allowed to grow in spheres. After 2-3 passages, spheres were dissociated and 3000 cells were plated in each well of a 96 well plate. Cells were then treated in triplicate with different concentrations of drugs or with vehicle (DMSO) only. Drugs were applied again on day 3 and number of spheres was analyzed on day 7.
Sphere size is […] with, and is thus a measure of, cell proliferation. SKPs were isolated from human foreskin and allowed to grow in spheres. After 2-3 passages, spheres were dissociated and 3000 cells were plated in each well of a 96 well plate. Cells were then treated in triplicate with (a) 100 nM of a single drug, (b) a combination of drugs in which each drug is present at a concentration of 100 nM, or (c) vehicle (DMSO). Drugs were applied again on day 3. To assess how well cells proliferate within the sphere, the size of spheres was analyzed on day 7. […]

Test [3] relates to xenograft neuroblastoma tumors. The experiment in a line: Tumor formation, xenograft neuroblastoma tumors in vivo. Further details: species or system human. To be noted: FIG. 4C.

On to `CC[N+](CC)(CC)CCOc1ccc(/C=C/c2ccccc2)cc1.[I-]` [MG 624], for which, in the test with human SKPs [1], the “proliferation of human SKPs” value was “enhanced proliferation”. The SKP proliferation entry in the test on human SKPs [1] (200 nM) is on record as “enhanced; also recorded: increased”. Moreover, in the test with C57BL/6 mice, the “anagen hair cycle (anagen hair follicles by morphology)” value was “induces” and the “follicle density (number of follicles per mm)” value is “induces”.
Take `CCCCOc1ccc(OCCCN2CCOCC2)cc1` [Pramoxine hydrochloride, Pramoxine]: the “proliferation of human SKPs” value with human SKPs [1] is “enhanced proliferation”. In the test with C57BL/6 mice, the “anagen hair cycle (anagen hair follicles by morphology)” value is given as “induces” and the “follicle density (number of follicles per mm)” value is on record as “induces”.
Consider `CCCCC[C@H](O)/C=C/[C@H]1[C@H](O)CC(=O)[C@@H]1CCCCCCC(=O)O` [Alprostadil, alprostadil], for which the “proliferation of human SKPs” value in the test on human SKPs [1] is listed as “enhanced proliferation”. In addition, in the test with C57BL/6 mice, the “hair length distribution histogram relative to control group” value was “shift versus longer hair length”, the “anagen hair cycle (anagen hair follicles by morphology)” value is listed as “induces” and the “follicle density (number of follicles per mm)” value is “induces”. In addition, in the test on Sox2-EGFP mice, the “hair length distribution histogram relative to control group” value was “shift to longer hair lengths” and the hair length result is on record as “increase in hair length”. Besides, the “size of human SKP spheres” value with human SKPs [2] was “increase the size of human SKP spheres”.
For `CC[C@]1(O)C[C@@H]2CN(CCc3c([nH]c4ccccc34)[C@@](C(=O)OC)(c3cc4c(cc3OC)N(C)[C@H]3[C@@](O)(C(=O)OC)[C@H](OC(C)=O)[C@]5(CC)C=CCN6CC[C@]43[C@@H]65)C2)C1` [vinblastine], in test [3], the tumor formation result is listed as “inhibition of tumor formation”.
Take `O=c1c(O)c(-c2ccc(O)cc2)oc2cc(O)cc(O)c12` [Kaempferol]: in the test on human SKPs [1], the “proliferation of human SKPs” value is recorded as “enhanced proliferation”. In the test with C57BL/6 mice, the “hair length distribution histogram relative to control group” value is reported as “shift versus longer hair length”, the “anagen hair cycle (anagen hair follicles by morphology)” value is listed as “induces” and the “follicle density (number of follicles per mm)” value is reported as “induces”. In addition, in the test on Sox2-EGFP mice, the “hair length distribution histogram relative to control group” value is reported as “shift to longer hair lengths” and the hair length entry was “increase in hair length”. The “size of human SKP spheres” value in the test with human SKPs [2] is “increase the size of human SKP spheres”.
